The values that follow come from publication PMC10208580 (Science Advances, 2023).

As usually defined, the Vmax is the top rate of the reaction or transport when substrate is in excess. Broadly, the kcat is the maximal rate divided by the concentration of active sites. As usually defined, the Km is the concentration of substrate that gives half-maximal velocity. Usually kcat/Km stands for the second-order rate constant that governs catalysis at low substrate concentration.

Where two headings read alike, the source gives them in different places. Bridge positions count the residues as written; N and C are the ends. Square brackets hold non-standard residues; d marks the D form. Ends that are not written are not given here. Peptide text beside a SMILES is read from it. pT = C[C@@H](OP(=O)(O)O)[C@H](N)C(=O)O

Data set [1] addresses T1, RyR1 (Oryctolagus cuniculus, UniProt P11716).
T1 construct: from tissue; host or cells: rabbit skeletal muscle heavy SR vesicles
Description: [3H]ryanodine binding to skeletal muscle heavy SR vesicles. As to conditions: SEM. The class given is biochemical, rabbit.

Data set [2] has as its target rabbit RyR1 (Ryanodine Receptor 1), purified from skeletal muscle (rabbit) (UniProt P11716).
The test system of data set [3] is RyR1. As to conditions: cited from earlier work. The source says: The detailed binding interface between IpCa and RyR1 is shown in Fig. 3, and putative interacting pairs of residues are shown in table S1. IpCa enters the vestibule of the channel and binds deep at the cytosolic side, adjacent to the transmembrane region. All RyR1 residues involved in binding are located in the cytosolic extensions of the inner S6 helices (S6ext) that line the permeation pathway. Equivalent residues of all four RyR1 subunits make different interactions with IpCa. The most extensive interface includes the side of IpCa that contains the 22–30 loop. It mostly consists of various ... || The structure is also in agreement with previous mutagenesis studies of calcins. For example, Arg^23 is conserved in all calcins and forms a likely salt bridge with RyR1 residue Asp^4945. […] Another study found a general importance of multiple charged IpCa residues to form a subconductance state in RyR1, with the largest effects found for substitutions in the 22–30 loop ([20]), which forms the most extensive interactions with RyR1. Thus, the structure appears to be in general agreement with known potencies of natura ... || A third tunnel with a smaller radius (~1.8 Å) can be found at the lateral opening near Arg^24 (“exit 3,” fig. S10D). The narrower radius, along with the presence of three positively charged residues at the constriction point, likely provides a sizeable energetic barrier. Thus, on the basis of minimum radius and electrostatic surface potential, exit 1 may form the most likely exit pathway for Ca^2+ ions.

Data set [4] addresses T2, mouse cAMP PKA catalytic subunit (PKAc, α isoform) (Mus musculus, UniProt P05132).
T2 construct: His tag (inferred from HisTrap purification) (cleaved yes); made in house; host or cells: E. coli Rosetta (DE3) pLysI
Description: ADP-Glo kinase assay, Michaelis-Menten kinetics of peptide phosphorylation. The class given is biochemical. As to conditions: peptide as PKA substrate, 25 nM PKAc, 1 mM ATP, 6 repeats. The procedure:
(§1) PKAc was concentrated to 500 μM, aliquoted, and stored in kinase buffer containing 20 mM Hepes (pH 7.4), 150 mM KCl, 4 mM TCEP, 5 mM MgCl2, and 30% glycerol and stored at −70°C in 0.5-ml tubes prior for use in kinase assays. All ADP-Glo Max reagents (Promega) were thawed and brought to room temperature before use. Each 0.5-ml PKAc tube was thawed and diluted to 0.5 μM in the kinase buffer without the glycerol. Kemptide and IpCa substrates were diluted to 1 mM in kinase buffer (without glycerol) from 10 mM stock made from lyophilized powder. Using a twofold dilution series, substrate concentrations ranged from 512 to 0.5 μM. In addition, a reaction with no substrate was added for a total of 12 reactions using a 20-μl reaction volume. One microliter of ATP (from the ADP-Glo Max kit) was used to reach a final concentration of 1 mM ATP in the reaction volume. Reaction was started by adding 1 μl of PKAc to reach 25 nM for each reaction. All reactions were carried out at room temperature for 30 to 60 min. Duplicates of each reaction tube were plated on a Corning 384-well solid white polystyrene microplates (Thermo Fisher Scientific) and used for downstream detection and luminescence readings. The average values of each duplicate reaction were used as a single replicate. Thus, for the total of six replicates, 12 reactions were used. Readings are based on relative luminescence units, which are converted into moles of ATP hydrolyzed using an adenosine diphosphate–ATP standard curve according to manufacturer’s protocol (Promega). Each standard curve was run in duplicate where the average was used to calculate moles of ATP hydrolyzed in each kinase reaction. Luminescence readings were recorded from the microplate wells using a PerkinElmer Victor X4.
(§2) A nonlinear regression Michaelis-Menten kinetics fitting function was used in GraphPad Prism 8.0 to calculate KM,Vmax, and Kcat values for the PKA-IpCa kinase assays. SEMs are reported for each data point as calculated in Prism. Figures and graphs were generated using PyMOL, ChimeraX, and Prism 8.0 unless otherwise noted. [^3H] Ryanodine binding data were fitted using nonlinear regression analysis in Origin 2018b software (Origin Lab). Hill’s equation was used to determine Bmax (maximum specific binding) and Kd ([…]). Statistical significance was determined at P < 0.05.
For orientation: ADP-Glo first removes unused ATP, then detects ADP through luciferase.

Data set [5] concerns CC(C)C[C@@H]1NC(=O)[C@H](Cc2c[nH]cn2)NC(=O)[C@@H]2CCCN2C(=O)[C@H](CC(C)C)NC(=O)[C@@H](NC(=O)[C@H](CC(=O)O)NC(=O)CN)CSSC[C@@H]2NC(=O)[C@@H]3CSSC[C@@H](C(=O)N[C@@H](CCCNC(=N)N)C(=O)O)NC(=O)[C@H](CCCNC(=N)N)NC(=O)[C@H](CCCCN)NC(=O)[C@H](CCC(=O)O)NC(=O)[C@H](C)NC(=O)[C@H](CC(N)=O)NC(=O)[C@H]([C@@H](C)O)NC(=O)CNC(=O)[C@H](CCCNC(=N)N)NC(=O)[C@H](CCCNC(=N)N)NC(=O)[C@H](CCCCN)NC(=O)[C@H](CSSC[C@H](NC(=O)[C@H](CCCNC(=N)N)NC(=O)[C@H](CCCCN)NC1=O)C(=O)N[C@@H](CCCCN)C(=O)N[C@@H](C)C(=O)N[C@@H](CC(=O)O)C(=O)N[C@@H](CC(N)=O)C(=O)N[C@@H](CC(=O)O)C(=O)N3)NC(=O)[C@H](CCCCN)NC(=O)[C@H](CCCCN)NC(=O)CNC2=O. Described as above. The class given is biochemical, mouse. As to conditions: other: peptide as PKA substrate; 25 nM PKAc, 1 mM ATP, substrate 0.5-512 µM, room temperature 30-60 min, luminescence; 6 repeats; pH 7.4. The procedure: as §1, §2

T1 sequence (P11716 whole entry): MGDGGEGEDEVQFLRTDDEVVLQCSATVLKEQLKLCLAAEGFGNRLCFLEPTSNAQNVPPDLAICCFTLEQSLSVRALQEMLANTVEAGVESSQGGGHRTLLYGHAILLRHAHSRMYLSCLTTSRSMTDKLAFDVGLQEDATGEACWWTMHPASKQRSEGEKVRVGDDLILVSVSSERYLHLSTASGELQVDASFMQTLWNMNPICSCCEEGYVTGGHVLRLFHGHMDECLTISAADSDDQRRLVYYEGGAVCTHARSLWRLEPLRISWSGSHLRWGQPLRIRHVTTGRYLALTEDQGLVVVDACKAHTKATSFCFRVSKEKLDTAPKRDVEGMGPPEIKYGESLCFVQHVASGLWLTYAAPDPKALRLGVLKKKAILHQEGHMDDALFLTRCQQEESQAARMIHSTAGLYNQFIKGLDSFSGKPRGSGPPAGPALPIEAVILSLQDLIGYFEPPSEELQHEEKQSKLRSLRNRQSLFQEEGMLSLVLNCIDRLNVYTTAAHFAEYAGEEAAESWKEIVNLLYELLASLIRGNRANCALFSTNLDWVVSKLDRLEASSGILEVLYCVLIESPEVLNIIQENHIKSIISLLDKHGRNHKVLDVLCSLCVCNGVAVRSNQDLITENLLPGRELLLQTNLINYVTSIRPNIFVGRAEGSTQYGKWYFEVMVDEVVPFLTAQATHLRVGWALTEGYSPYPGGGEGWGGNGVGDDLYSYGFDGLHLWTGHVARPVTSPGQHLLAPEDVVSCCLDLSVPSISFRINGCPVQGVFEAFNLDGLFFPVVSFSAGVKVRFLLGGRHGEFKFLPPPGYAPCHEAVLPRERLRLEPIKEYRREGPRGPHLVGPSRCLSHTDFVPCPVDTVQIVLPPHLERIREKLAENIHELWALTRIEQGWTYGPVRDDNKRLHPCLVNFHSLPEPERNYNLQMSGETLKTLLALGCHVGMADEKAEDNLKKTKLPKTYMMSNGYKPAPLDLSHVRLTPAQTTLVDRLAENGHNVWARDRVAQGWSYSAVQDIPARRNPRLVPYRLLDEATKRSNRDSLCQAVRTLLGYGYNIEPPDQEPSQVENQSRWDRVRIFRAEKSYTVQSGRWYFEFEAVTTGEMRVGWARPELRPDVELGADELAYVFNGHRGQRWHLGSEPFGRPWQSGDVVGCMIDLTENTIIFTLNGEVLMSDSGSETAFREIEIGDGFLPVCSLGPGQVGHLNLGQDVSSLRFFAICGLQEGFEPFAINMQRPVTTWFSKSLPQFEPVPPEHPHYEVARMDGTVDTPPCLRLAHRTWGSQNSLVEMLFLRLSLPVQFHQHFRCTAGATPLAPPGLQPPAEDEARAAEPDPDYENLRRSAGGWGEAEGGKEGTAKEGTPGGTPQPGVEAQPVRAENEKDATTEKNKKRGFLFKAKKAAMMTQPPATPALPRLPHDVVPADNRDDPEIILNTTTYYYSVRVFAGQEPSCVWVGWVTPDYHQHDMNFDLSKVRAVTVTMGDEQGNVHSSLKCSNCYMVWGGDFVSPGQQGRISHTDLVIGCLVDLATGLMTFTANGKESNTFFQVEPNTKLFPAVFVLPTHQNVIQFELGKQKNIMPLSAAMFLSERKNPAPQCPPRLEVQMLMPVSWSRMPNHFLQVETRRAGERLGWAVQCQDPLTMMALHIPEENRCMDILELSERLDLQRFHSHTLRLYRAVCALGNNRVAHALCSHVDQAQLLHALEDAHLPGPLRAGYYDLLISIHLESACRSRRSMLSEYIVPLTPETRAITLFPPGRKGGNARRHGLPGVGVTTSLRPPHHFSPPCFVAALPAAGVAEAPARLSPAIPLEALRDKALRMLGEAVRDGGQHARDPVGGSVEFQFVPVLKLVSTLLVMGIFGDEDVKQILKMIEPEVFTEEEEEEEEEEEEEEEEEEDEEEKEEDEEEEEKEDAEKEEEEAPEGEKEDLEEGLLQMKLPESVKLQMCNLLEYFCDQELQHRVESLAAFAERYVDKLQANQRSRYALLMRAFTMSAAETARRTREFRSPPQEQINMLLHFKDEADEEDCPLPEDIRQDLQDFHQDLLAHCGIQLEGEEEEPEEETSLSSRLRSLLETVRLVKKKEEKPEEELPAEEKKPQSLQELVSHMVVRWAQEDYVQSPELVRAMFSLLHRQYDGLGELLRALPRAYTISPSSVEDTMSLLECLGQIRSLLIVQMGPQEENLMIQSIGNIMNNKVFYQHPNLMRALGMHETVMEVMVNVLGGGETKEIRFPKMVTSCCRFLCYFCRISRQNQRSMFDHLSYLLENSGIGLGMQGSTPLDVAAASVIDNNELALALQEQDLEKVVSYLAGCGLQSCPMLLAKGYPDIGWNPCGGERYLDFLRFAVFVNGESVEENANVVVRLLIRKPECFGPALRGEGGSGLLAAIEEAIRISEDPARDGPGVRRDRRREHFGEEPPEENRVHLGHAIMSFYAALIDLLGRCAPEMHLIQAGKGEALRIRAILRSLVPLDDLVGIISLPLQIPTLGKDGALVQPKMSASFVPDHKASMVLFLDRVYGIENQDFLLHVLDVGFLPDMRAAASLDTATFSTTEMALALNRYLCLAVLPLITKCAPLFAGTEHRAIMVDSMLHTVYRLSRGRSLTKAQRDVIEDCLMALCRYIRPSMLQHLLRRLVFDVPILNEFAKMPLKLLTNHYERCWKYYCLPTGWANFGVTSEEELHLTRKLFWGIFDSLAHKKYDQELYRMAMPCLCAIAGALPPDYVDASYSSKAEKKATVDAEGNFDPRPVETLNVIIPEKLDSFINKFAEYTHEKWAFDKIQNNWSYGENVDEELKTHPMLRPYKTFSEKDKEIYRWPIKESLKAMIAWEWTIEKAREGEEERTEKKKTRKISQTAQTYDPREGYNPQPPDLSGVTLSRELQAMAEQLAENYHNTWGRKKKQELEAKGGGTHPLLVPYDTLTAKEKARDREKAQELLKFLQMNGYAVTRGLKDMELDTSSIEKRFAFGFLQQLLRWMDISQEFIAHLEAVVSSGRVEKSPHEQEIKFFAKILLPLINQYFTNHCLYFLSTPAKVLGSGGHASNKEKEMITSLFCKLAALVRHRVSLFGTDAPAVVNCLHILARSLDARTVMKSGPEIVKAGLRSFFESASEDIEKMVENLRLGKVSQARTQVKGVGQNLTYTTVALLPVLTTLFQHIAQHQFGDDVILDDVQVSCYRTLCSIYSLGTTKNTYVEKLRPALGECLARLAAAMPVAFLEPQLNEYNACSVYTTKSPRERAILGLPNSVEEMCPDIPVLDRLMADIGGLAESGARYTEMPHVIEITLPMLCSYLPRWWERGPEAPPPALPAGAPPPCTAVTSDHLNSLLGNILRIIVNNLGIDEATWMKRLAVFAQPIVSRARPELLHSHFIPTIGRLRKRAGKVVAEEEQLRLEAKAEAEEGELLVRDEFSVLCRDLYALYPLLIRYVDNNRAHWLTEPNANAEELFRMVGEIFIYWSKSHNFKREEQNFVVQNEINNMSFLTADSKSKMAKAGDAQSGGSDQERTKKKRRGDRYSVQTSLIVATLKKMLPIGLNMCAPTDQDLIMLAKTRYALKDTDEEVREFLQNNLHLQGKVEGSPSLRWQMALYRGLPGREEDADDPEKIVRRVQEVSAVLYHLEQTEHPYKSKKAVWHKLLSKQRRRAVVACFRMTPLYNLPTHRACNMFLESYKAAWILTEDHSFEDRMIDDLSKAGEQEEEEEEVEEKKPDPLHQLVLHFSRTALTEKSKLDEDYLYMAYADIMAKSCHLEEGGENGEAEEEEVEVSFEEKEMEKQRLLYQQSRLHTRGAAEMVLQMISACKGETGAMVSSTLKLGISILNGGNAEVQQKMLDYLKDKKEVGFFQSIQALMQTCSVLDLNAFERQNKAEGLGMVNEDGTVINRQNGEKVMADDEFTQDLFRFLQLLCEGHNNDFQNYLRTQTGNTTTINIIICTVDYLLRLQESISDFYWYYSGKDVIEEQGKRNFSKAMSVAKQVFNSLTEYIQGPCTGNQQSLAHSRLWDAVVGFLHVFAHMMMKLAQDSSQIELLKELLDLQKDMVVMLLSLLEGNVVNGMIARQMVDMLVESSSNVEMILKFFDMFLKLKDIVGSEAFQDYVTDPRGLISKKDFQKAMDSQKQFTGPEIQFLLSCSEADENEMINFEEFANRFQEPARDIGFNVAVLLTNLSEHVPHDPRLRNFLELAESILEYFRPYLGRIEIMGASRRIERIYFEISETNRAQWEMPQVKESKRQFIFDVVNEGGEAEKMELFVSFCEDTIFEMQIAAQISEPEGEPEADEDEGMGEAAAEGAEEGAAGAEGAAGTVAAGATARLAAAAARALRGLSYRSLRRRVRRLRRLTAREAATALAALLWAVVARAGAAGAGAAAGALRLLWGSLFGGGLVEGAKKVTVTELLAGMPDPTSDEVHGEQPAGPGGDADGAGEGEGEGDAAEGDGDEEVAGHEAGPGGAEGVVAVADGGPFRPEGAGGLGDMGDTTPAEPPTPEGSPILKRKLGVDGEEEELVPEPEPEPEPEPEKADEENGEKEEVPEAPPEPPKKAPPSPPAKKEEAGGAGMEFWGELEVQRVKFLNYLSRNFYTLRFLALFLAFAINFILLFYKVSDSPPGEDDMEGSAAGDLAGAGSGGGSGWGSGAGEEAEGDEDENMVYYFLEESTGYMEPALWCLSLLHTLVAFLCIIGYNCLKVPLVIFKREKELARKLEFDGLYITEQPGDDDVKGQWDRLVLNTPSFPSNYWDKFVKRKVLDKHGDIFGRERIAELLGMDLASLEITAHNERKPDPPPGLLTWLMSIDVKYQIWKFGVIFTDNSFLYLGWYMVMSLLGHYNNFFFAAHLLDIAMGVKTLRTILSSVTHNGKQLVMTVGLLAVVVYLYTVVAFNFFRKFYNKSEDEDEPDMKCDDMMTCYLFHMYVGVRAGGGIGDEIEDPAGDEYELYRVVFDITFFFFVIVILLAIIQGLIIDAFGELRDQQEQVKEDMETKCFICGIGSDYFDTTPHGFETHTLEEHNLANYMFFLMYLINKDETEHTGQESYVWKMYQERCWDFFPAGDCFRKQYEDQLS
Chain of rabbit RyR1 (Ryanodine Receptor 1), purified from skeletal muscle (rabbit) (P11716 whole entry): as above

At RyR1 [1], `CC(C)C[C@@H]1NC(=O)[C@H](Cc2c[nH]cn2)NC(=O)[C@@H]2CCCN2C(=O)[C@H](CC(C)C)NC(=O)[C@@H](NC(=O)[C@H](CC(=O)O)NC(=O)CN)CSSC[C@@H]2NC(=O)[C@@H]3CSSC[C@@H](C(=O)N[C@@H](CCCNC(=N)N)C(=O)O)NC(=O)[C@H](CCCNC(=N)N)NC(=O)[C@H](CCCCN)NC(=O)[C@H](CCC(=O)O)NC(=O)[C@H](C)NC(=O)[C@H](CC(N)=O)NC(=O)[C@H]([C@@H](C)O)NC(=O)CNC(=O)[C@H](CCCNC(=N)N)NC(=O)[C@H](CCCNC(=N)N)NC(=O)[C@H](CCCCN)NC(=O)[C@H](CSSC[C@H](NC(=O)[C@H](CCCNC(=N)N)NC(=O)[C@H](CCCCN)NC1=O)C(=O)N[C@@H](CCCCN)C(=O)N[C@@H](C)C(=O)N[C@@H](CC(=O)O)C(=O)N[C@@H](CC(N)=O)C(=O)N[C@@H](CC(=O)O)C(=O)N3)NC(=O)[C@H](CCCCN)NC(=O)[C@H](CCCCN)NC(=O)CNC2=O` [IpCa, Imperacalcin] (H-GDCLPHLKRCKADNDCCGKKCKRRGTNAEKRCR-OH; disulfide 3-17, 10-21, 16-32) came in with an EC50 of 6 ± 2 nM.
Consider `CC(C)C[C@@H]1NC(=O)[C@H](Cc2c[nH]cn2)NC(=O)[C@@H]2CCCN2C(=O)[C@H](CC(C)C)NC(=O)[C@@H](NC(=O)[C@H](CC(=O)O)NC(=O)CN)CSSC[C@@H]2NC(=O)[C@@H]3CSSC[C@@H](C(=O)N[C@@H](CCCNC(=N)N)C(=O)O)NC(=O)[C@H](CCCNC(=N)N)NC(=O)[C@H](CCCCN)NC(=O)[C@H](CCC(=O)O)NC(=O)[C@H](C)NC(=O)[C@H](CC(N)=O)NC(=O)[C@H]([C@@H](C)OP(=O)(O)O)NC(=O)CNC(=O)[C@H](CCCNC(=N)N)NC(=O)[C@H](CCCNC(=N)N)NC(=O)[C@H](CCCCN)NC(=O)[C@H](CSSC[C@H](NC(=O)[C@H](CCCNC(=N)N)NC(=O)[C@H](CCCCN)NC1=O)C(=O)N[C@@H](CCCCN)C(=O)N[C@@H](C)C(=O)N[C@@H](CC(=O)O)C(=O)N[C@@H](CC(N)=O)C(=O)N[C@@H](CC(=O)O)C(=O)N3)NC(=O)[C@H](CCCCN)NC(=O)[C@H](CCCCN)NC(=O)CNC2=O` [IpCa-pT26] (H-GDCLPHLKRCKADNDCCGKKCKRRG[pT]NAEKRCR-OH; disulfide 3-17, 10-21, 16-32), for which the EC50 at RyR1 [1] (skeletal muscle heavy SR vesicles, mean ± SEM for n = 3 separate experiments, read-out: Median effective concentration for stimulation of [3H]ryanodine binding) came out at 42 ± 10 nM.
“Imperacalcin (from UniProt P59868 1-33) (peptide)” yielded a [3H] ryanodine binding to skeletal muscle heavy SR vesicles against IpCa-WT concentration; median effective concentration in data set [2] of 6 nM.
Turning to “IpCa R23E: IpCa with the R23E mutation, from previous mutagenesis study (GDCLPHLKRCKADNDCCGKKCKERGTNAEKRCR; ends and bridges not checked; cysteine pairing not given here; UniProt P59868 1-33, looked up, variant R23E)”, the “Effect of mutation on potency” value in the data set on RyR1 [3] is on record as “drastically reduce potency”.
For the compound LRRASLG [Kemptide], in data set [4] (room temperature), the Vmax came to 8.34 ± 0.40 µmol/min/mg and the kcat amounted to 277 ± 13.2 min⁻¹. Also, the Km in data set [4] (substrate 0.5-512 µM, room temperature 30-60 min, luminescence) worked out at 10.3 ± 2.16 µM.
Turning to “mouse cAMP PKA catalytic subunit (PKAc, α isoform) (Mus musculus)”, in data set [5], the Km turned out to be 22.0 ± 3.40 µM, the maximal velocity (Vmax) is 20.2 ± 0.93 µmol/min/mg, the kcat stood at 672 ± 31.1 min⁻¹ and the kcat/Km turned out to be 30.5 min⁻¹ µM⁻¹.
Regarding “opicalcin2: calcin differing from opicalcin1 only by Ala26 instead of Thr26 (GDCLPHLKRCKENNDCCSKKCKRRGANPEKRCR; ends and bridges not checked; cysteine pairing not given here; UniProt P60253 34-66, looked up)”, in the data set on RyR1 [3], the “Apparent affinity / potency” value was “can still bind with high potency”. Further, the “Difference in potency between opicalcin1 and opicalcin2” value in the data set with RyR1 [3] (opicalcin2 less potent, fig. S5, ref Xiao et al (2016)) was ~ 10 fold.
